Key:
Test in all cases: KiNativ kinome profiling in PANC-1 lysate
Format in all cases: binding
[1] = target: T1, IRE1 (Homo sapiens, UniProt O75460)
T1 construct: we opted to conduct a kinome screen (KiNativ) in PANC-1 cell lysates; endogenous in cells; host or cells: PANC-1 cell lysate
Summary of the method: (§1)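 PANC-1 lysates were incubated with 5 μM inhibitor or DMSO, then labeled with a desthiobiotin-ATP acyl-phosphate probe that biotinylates conserved kinase lysines. Tryptic peptides were streptavidin-enriched and quantified by LC-MS/MS, reported as % change in MS signal from duplicate treated and duplicate control samples.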

[2] = target: T2, PLK2 (Homo sapiens, UniProt Q9NYY3); settings: Lys2
T2 construct: endogenous in cells; host or cells: PANC-1 cell lysate
Summary of the method: as §1

[3] = target: T3, TLK1 (Homo sapiens, UniProt Q9UKI8); settings: Lys2
T3 construct: endogenous in cells; host or cells: PANC-1 cell lysate
Summary of the method: as §1

[4] = target: T4, PI4K2B (Homo sapiens, UniProt Q8TCG2); settings: ATP
T4 construct: endogenous in cells; host or cells: PANC-1 cell lysate
T4 sequence (Q8TCG2 whole entry): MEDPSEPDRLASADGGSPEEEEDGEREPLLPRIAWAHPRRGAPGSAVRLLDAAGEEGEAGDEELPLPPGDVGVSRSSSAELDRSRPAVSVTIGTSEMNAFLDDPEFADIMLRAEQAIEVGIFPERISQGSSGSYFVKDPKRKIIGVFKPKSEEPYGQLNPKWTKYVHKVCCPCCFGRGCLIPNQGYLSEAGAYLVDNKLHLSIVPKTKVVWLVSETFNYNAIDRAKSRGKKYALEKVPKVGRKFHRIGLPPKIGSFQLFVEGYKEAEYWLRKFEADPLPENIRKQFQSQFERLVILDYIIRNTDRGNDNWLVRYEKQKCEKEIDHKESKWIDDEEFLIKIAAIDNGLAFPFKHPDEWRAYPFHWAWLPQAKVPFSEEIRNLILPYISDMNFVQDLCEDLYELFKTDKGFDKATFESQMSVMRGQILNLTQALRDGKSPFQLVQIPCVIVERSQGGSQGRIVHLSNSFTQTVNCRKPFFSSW
Summary of the method: as §1

[5] = target: T5, Erk2 (Homo sapiens, UniProt P28482); settings: Lys2
T5 construct: endogenous in cells; host or cells: PANC-1 lysate
T5 sequence (P28482 whole entry): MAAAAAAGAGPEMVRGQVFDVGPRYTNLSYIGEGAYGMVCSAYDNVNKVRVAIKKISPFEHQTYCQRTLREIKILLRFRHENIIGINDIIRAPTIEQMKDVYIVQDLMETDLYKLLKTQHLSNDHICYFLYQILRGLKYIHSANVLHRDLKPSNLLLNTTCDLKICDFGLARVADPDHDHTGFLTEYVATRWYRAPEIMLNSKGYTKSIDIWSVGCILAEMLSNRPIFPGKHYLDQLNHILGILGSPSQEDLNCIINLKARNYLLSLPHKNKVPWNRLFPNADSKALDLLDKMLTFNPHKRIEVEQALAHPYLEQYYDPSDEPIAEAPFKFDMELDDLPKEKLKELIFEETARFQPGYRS
Summary of the method: as §1

[6] = target: T6, MAP3K1 (Homo sapiens, UniProt Q13233)
T6 construct: endogenous in cells; host or cells: PANC-1 cell lysate
T6 sequence (Q13233 whole entry): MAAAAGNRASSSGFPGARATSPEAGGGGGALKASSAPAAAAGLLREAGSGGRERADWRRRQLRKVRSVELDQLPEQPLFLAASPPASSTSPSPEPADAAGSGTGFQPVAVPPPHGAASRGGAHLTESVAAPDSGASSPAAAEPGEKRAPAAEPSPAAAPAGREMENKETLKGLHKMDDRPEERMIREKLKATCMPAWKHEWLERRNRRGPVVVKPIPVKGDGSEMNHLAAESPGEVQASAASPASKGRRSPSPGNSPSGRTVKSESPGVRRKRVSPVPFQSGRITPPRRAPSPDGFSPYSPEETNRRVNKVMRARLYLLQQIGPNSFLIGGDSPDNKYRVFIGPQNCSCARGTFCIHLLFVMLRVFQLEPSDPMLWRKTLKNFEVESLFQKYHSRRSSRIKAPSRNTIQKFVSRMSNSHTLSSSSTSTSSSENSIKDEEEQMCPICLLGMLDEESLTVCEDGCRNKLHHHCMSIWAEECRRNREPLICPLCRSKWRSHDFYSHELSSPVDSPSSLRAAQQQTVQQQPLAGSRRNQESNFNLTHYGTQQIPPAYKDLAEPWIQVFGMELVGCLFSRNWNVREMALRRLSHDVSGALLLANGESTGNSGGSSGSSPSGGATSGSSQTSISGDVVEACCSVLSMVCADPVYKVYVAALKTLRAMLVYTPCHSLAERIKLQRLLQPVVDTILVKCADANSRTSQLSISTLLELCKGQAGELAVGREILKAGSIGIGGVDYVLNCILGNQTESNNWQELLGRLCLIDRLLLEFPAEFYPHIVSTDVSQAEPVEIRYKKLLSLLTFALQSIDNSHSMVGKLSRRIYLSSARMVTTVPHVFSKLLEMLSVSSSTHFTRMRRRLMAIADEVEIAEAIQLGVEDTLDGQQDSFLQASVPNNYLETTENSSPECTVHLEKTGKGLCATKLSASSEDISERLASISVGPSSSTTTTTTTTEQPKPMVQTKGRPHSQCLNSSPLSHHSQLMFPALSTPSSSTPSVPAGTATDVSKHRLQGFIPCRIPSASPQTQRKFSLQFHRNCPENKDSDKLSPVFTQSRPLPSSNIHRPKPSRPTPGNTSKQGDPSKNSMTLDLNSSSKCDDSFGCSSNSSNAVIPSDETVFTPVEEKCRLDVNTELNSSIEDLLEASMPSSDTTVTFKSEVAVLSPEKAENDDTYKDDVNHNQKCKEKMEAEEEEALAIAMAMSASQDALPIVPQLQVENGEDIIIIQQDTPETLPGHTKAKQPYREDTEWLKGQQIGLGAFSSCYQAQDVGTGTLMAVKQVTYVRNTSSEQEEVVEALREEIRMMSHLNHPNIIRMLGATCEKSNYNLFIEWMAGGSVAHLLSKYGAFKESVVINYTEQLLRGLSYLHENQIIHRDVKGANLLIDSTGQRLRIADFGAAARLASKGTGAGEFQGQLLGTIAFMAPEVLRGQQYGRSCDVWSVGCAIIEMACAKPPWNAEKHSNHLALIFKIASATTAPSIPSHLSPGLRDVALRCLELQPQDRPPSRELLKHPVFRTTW
Summary of the method: as §1

[7] = target: T7, STLK6 (Homo sapiens, UniProt Q9C0K7); settings: Lys1
T7 construct: endogenous in cells; host or cells: PANC-1 cell lysate
Summary of the method: as §1

[8] = target: T8, MAP3K2 (Homo sapiens, UniProt Q9Y2U5); settings: Lys1
T8 construct: endogenous in cells; host or cells: PANC-1 cell lysate
Summary of the method: as §1

[9] = target: T9, MAP4K3 (Homo sapiens, UniProt Q8IVH8)
T9 construct: endogenous in cells; host or cells: PANC-1 cell lysate
T9 sequence (Q8IVH8 whole entry): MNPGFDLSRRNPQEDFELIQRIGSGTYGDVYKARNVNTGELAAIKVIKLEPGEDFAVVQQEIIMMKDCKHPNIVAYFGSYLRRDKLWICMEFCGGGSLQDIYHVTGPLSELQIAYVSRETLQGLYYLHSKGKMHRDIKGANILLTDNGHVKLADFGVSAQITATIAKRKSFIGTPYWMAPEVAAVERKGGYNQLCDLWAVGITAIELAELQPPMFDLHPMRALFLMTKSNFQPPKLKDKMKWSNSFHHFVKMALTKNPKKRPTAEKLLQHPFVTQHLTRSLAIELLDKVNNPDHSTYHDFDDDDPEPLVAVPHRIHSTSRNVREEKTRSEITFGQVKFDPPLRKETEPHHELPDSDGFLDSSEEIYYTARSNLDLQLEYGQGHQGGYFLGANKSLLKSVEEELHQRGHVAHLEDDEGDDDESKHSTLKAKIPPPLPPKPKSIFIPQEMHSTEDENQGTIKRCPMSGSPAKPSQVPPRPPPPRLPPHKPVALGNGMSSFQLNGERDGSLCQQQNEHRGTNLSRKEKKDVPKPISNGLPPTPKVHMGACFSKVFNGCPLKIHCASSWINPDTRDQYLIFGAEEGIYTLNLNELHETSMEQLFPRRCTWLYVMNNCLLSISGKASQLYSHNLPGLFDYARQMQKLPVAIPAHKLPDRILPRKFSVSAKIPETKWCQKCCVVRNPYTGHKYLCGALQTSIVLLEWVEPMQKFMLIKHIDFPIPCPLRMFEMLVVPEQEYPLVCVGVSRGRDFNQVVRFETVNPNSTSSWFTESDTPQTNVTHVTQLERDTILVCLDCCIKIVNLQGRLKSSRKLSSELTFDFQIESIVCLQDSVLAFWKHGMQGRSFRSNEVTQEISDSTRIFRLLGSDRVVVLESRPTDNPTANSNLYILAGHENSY
Summary of the method: as §1

[10] = system: MAPKAPK2, MAPKAPK3; settings: 5 µM; Lys2; DVKPENLLYTSK
Summary of the method: as §1

[11] = target: T10, CHED (Homo sapiens, UniProt Q14004); settings: Lys2
T10 construct: endogenous in cells; host or cells: PANC-1 cell lysate
Summary of the method: as §1

[12] = target: T11, CDC2 (Homo sapiens, UniProt P06493)
T11 construct: endogenous in cells; host or cells: PANC-1 cell lysate
T11 sequence (P06493 whole entry): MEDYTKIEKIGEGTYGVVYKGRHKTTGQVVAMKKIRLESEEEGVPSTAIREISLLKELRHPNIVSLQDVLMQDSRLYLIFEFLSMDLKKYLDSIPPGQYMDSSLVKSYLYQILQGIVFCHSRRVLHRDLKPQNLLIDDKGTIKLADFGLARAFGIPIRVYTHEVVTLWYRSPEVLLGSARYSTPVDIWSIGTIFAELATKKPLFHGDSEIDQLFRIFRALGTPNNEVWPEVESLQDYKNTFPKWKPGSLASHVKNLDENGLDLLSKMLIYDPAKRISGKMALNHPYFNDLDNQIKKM
Summary of the method: as §1

[13] = target: T12, NEK9 (Homo sapiens, UniProt Q8TD19)
T12 construct: endogenous in cells; host or cells: PANC-1 cell lysate
T12 sequence (Q8TD19 1-979): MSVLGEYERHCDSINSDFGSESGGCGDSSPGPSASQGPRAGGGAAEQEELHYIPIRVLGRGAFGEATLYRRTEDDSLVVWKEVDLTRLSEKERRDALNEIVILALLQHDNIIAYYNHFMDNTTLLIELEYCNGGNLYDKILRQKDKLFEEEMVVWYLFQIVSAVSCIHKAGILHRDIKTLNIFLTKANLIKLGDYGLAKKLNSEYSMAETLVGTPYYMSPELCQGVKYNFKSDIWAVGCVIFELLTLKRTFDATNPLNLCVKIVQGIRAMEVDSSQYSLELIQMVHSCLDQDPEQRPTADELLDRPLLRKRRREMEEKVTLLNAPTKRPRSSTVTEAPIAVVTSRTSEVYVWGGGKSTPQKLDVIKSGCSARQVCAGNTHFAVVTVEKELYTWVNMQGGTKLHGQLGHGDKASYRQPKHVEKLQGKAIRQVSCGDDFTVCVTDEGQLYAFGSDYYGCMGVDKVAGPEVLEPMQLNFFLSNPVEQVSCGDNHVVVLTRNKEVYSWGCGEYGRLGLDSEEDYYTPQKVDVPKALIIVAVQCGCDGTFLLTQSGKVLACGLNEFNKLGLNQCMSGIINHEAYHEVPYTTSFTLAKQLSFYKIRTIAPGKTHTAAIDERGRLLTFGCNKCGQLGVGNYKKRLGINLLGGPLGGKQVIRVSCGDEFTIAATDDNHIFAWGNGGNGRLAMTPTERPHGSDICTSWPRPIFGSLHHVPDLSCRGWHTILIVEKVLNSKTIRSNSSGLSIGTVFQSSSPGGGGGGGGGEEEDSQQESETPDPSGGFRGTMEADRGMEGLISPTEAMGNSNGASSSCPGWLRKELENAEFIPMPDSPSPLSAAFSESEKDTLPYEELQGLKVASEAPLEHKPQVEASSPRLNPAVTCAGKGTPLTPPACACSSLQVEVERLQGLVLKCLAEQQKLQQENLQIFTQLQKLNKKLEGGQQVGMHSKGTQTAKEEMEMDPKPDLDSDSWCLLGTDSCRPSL
Summary of the method: as §1

[14] = target: T13, STLK5 (Homo sapiens, UniProt Q7RTN6)
T13 construct: endogenous in cells; host or cells: PANC-1 cell lysate
T13 sequence (Q7RTN6 whole entry): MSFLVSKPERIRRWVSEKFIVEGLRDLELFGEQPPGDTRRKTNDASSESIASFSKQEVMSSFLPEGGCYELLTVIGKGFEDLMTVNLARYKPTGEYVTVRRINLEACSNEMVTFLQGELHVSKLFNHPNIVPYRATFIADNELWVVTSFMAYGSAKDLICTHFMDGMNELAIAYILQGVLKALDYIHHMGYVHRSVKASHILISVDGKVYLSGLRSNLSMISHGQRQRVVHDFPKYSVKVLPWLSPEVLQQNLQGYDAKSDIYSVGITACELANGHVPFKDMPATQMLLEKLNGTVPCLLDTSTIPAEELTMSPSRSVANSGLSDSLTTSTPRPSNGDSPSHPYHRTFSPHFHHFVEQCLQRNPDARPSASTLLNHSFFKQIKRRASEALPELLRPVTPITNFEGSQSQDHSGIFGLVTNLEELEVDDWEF
Summary of the method: as §1

T1 sequence (O75460 19-977): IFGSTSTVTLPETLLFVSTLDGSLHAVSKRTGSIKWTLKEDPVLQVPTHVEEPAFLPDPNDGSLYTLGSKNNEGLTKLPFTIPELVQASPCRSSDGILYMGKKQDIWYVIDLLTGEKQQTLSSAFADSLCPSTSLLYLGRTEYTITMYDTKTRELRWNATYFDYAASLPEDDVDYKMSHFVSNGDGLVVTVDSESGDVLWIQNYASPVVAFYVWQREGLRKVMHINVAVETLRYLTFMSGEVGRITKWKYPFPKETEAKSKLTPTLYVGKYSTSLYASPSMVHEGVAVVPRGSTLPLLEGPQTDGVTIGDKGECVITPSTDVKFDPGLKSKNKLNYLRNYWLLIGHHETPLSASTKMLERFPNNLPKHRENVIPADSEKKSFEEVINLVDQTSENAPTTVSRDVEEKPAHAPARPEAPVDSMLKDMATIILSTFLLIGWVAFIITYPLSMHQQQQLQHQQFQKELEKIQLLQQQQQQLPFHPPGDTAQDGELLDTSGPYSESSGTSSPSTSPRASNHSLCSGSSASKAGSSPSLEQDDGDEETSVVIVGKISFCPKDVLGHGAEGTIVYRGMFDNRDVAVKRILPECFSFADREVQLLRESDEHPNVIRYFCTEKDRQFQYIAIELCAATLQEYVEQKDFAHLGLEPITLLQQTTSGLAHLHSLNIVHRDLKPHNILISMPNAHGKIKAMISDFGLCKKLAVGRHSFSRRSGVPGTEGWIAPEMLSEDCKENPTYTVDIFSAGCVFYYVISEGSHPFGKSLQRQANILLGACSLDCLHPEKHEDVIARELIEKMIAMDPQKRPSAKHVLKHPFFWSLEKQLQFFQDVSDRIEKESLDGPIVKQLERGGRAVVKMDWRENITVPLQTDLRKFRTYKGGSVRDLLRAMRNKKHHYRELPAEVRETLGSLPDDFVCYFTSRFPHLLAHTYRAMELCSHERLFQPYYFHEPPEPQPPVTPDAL

Cn1cc(-c2cnc3ccc(NC(=O)Nc4ccc(F)c(C(F)(F)F)c4)cc3n2)cn1 [51-106, 1-(4-Fluoro-3-(trifluoromethyl)phenyl)-3-(3-(1-methyl-1H-pyrazol-4-yl)quinoxalin-6-yl)urea]
inhibition at 5 µM ([1]; Lys1, GMFDNRDVAVKR): 8.9% | inhibition at 5 µM ([1]; Lys2, DLKPHNILISMPNAHGK): ≤ 0% | inhibition at 5 µM [2]: 1.4% | inhibition at 5 µM [3]: 6.2% | inhibition at 5 µM [4]: 6.4% | inhibition at 5 µM [5]: ≤ 0% | MAP3K1 inhibition compared to any other kinase in the panel ([6]; 5 μM, 328 quantified kinases): 2.5 fold | % Inhibition ([6]; 5 µM, Lys2, DVKGANLLIDSTGQR): 78% | inhibition at 5 µM ([6]; 5 µM, Lys2, DVKGANLLIDSTGQR): 78.1% | inhibition at 5 µM [7]: 5.8% | inhibition at 5 µM [8]: ≤ 0% | inhibition at 5 µM ([9]; Lys1, NVNTGELAAIKVIK): 4.7% | inhibition at 5 µM ([9]; Lys2, DIKGANILLTDNGHVK): ≤ 0% | % Inhibition [10]: NB (NB = No Binding (≤ 0)) | inhibition at 5 µM [11]: ≤ 0% | inhibition at 5 µM ([12]; Lys1, TTGQVVAMKK): 20.3% | inhibition at 5 µM ([12]; Lys2, DLKPQNLLIDDK): ≤ 0% | inhibition at 5 µM ([12]; Protein Kinase Domain, KPLFHGDSEIDQLFR): ≤ 0% | inhibition at 5 µM ([13]; ATP Loop, LGDYGLAKK): ≤ 0% | inhibition at 5 µM ([13]; Lys1, RTEDDSLVVWKEVDLTR): 0.6% | inhibition at 5 µM ([13]; Lys2, DIKTLNIFLTK): 13.8% | % Inhibition ([14]; 5 µM, Lys2, SVKASHILISVDGK): NB (NB = No Binding (≤ 0)) | inhibition at 5 µM ([14]; ATP Loop, […]): ≤ 0%

From paper PMC12073402, “A Selective MAP3K1 Inhibitor Facilitates Discovery of NPM1 as a Member of the Network” (Molecules, 2025)
